Values quoted from earlier work as cited in patent publication US20130116279A1, “BICYCLIC HETEROARYL INHIBITORS OF PDE4” (KALYPSYS, INC., priority 2011, published 2013).

System: recombinant human PDE4
Conditions: inhibiting recombinant human PDE4, reported

IC50: ~200 nM
Compound: COc1ccc(C2CNC(=O)C2)cc1OC1CCCC1 (stereo not shown) [rolipram]
